Results from patent publication US20200002354A1, “HEXAHYDROPYRAZINOBENZ- OR -PYRIDO-OXAZEPINES CARRYING AN OXYGEN-CONTAINING SUBSTITUENT AND USE THEREOF IN THE TREATMENT OF 5-HT2C-DEPENDENT DISORDERS” (AbbVie Deutschland GmbH & Co. KG, priority 2015, published 2020).

Assays:
5-HT2C receptor = biological target: T1, 5-HT2C receptor (Homo sapiens, UniProt P28335); test: Human 5-HT2C functional assay (beta-arrestin2 recruitment, U2OS_HTR2C_β-Arrestin cells); type: cell-based; conditions: for EC50: Potency (EC50 5-HT2C) in functional assay, agonism, read-out: EC50 5-HT2C; for Emax: relative efficacy vs maximal effect induced by 5-HT (defined as 100%)
T1 construct: host or cells: U2OS
T1 sequence (P28335 33-458): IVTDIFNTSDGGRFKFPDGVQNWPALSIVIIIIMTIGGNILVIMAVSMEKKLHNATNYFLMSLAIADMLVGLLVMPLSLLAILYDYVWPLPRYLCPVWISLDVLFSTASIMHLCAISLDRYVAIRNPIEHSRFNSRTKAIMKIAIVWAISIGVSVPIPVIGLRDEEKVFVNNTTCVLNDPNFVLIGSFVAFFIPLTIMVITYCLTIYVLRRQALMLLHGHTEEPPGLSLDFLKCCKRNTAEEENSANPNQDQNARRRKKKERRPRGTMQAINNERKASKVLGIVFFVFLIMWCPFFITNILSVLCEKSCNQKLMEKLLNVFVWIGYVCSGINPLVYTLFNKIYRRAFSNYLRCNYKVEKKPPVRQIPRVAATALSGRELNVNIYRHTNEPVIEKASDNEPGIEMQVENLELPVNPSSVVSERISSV
T1 sequence (P32121 whole entry partner): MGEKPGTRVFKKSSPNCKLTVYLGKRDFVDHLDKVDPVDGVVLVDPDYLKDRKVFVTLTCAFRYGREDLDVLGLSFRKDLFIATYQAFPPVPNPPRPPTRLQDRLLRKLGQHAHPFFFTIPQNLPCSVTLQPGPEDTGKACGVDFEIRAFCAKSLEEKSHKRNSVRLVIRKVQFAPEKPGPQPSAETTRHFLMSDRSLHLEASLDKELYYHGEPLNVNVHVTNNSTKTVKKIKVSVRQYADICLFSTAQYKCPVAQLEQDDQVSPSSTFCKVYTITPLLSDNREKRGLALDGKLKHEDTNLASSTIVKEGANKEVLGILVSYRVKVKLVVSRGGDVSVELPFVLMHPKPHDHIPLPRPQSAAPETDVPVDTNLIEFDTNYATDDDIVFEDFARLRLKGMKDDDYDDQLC
Experimental: 1. Human 5-HT2C Functional Assay
The functional activity of compounds of formula I was assayed by incubation with U2OS_HTR2C_β-Arrestin cells (DiscoverX, 93-0289C3) to induce beta-arrestin2 recruitment to the 5-HT2C receptor. The agonist-induced recruitment and proximity of the receptor and beta-arrestin2 leads to complementation and formation of active β-galactosidase. The enzyme complementation results in enzyme activity, which is measured following the termination of the agonist incubation using DiscoveRx's detection reagent, which contains a chemiluminescent substrate which produces a high intensity signal. Cells were plated and a medium-change to a 1% serum containing medium was performed 24 h later. The next day, test compounds were added and incubated for 1.5 h before addition of detection reagent.
The response produced was measured and compared with the response produced by 10 [mu]M 5-HT or the maximal effect induced by 5-HT (defined as 100%) to which it was expressed as a percentage response (relative efficacy).

human 5-HT2A receptor = biological target: T2, human 5-HT2A receptor (Homo sapiens, UniProt P28223); test: Human 5-HT2A functional assay (calcium mobilisation in CHO-K1 cells, FLIPR); type: cell-based; conditions: based on agonism: EC50 5-HT2A/EC50 5-HT2C
T2 construct: expressed in transfected cells; host or cells: CHO-K1
T2 sequence (P28223 whole entry): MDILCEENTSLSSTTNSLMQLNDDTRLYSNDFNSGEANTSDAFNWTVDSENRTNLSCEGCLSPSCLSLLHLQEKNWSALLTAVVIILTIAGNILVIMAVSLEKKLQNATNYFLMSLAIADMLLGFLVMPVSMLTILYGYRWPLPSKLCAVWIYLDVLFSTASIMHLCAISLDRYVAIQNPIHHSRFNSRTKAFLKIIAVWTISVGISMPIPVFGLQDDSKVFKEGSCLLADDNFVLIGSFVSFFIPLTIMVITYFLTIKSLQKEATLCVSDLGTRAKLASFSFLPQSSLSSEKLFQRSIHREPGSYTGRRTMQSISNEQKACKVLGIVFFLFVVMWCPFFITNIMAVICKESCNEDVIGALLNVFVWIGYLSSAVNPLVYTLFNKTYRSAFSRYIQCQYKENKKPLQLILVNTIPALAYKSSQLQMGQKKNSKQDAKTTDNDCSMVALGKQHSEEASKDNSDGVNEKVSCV
Experimental: 2. Human 5-HT2A Functional Assay
Functional activity on the 5-HT2A receptor was determined by testing the effect of the compounds I on calcium mobilisation in CHO-K1 cells, stably transfected with human 5-HT2A receptor. Cells were seeded into sterile black 384-well plates with clear bottom at 25,000 cells/well in a volume of 25 μl and grown for 5-6 hours at 37° C., in 5% CO2 in tissue culture medium (“Ultra CHO” by LONZA), containing 1% dialysed FCS and 50 μg/ml gentamicin (Invitrogen). After this incubation, medium was replaced by a serum free version of the same tissue culture medium followed by incubation overnight at 37° C. and in 5% CO2. Cells were then loaded with a fluorescent calcium-sensitive dye in the presence of 0.07% probenecid for an hour at 37° C., according to the manufacturer's protocol (Ca5-Assay Kit, Molecular Devices), followed by an additional 60 min incubation at room temperature. Serial compound dilutions (final concentrations of 10^−10 to 10^−5M, prepared in HBSS+50 mM HEPES) were first added to the cells alone (“first addition” to assess agonism on the 5-HT2A receptor), then after 8 min, serotonin was added to the same wells at a final concentration of 3×10^−8 M (“second addition” to see potential antagonistic effect) and the maximal calcium response was determined using a FLIPR® Tetra instrument (Molecular Devices) in each of the two steps. The relative efficacy of the compounds was calculated as a percentage of the maximal effect induced by serotonin alone (defined as 100%). To determine EC50/IC50 values, concentration-response curves were fitted using a four-parameter logistic equation (IDBS Biobookml). Kb values were calculated from IC50 values, according to Cheng & Prusoff

human 5-HT2B receptor = biological target: T3, human 5-HT2B receptor (Homo sapiens, UniProt P41595); test: Human 5-HT2B functional assay (calcium mobilisation in CHO-FlpIn cells, FLIPR); type: cell-based; conditions: based on agonism: EC50 5-HT2B/EC50 5-HT2C
T3 construct: expressed in transfected cells; host or cells: CHO-FlpIn
T3 sequence (P41595 whole entry): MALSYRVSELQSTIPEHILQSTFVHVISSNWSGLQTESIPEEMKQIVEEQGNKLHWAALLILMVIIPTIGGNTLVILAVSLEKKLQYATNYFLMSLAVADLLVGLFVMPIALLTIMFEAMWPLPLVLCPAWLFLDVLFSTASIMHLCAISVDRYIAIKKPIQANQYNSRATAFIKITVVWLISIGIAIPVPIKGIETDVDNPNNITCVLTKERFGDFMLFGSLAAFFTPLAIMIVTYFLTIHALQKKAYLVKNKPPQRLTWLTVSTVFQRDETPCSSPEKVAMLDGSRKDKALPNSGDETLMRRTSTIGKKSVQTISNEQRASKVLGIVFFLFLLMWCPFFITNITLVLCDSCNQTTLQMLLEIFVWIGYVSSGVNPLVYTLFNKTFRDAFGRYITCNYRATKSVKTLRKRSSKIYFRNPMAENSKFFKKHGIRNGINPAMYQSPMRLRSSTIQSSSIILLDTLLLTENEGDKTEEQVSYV
Experimental: 3. Human 5-HT2B Functional Assay
Functional activity on the 5-HT2B receptor was determined by testing the effect of the compounds I on calcium mobilisation in CHO-FlpIn cells, stably transfected with human 5-HT2B receptor. Cells were seeded into sterile black 384-well plates with clear bottom at 30,000 cells/well in a volume of 25 μl and grown overnight at 37° C., in 5% CO2 in tissue culture medium (“CHO-S-SFM II” by Invitrogen), containing 1% dialysed FCS and 50 μg/ml gentamicin (Invitrogen). On the next morning, medium was replaced by a serum free version of the same tissue culture medium for a further incubation for 4 hours at 37° C. and in 5% CO2. Cells were then loaded with a fluorescent calcium-sensitive dye in the presence of 0.07% probenecid for an hour at 37° C., according to the manufacturer's protocol (Ca5-Assay Kit, Molecular Devices), followed by an additional 60 min incubation at room temperature. Serial compound dilutions (final concentrations of 10^−10 to 10^−5M, prepared in HBSS+50 mM HEPES) were first added to the cells alone (“first addition” to assess agonism on the 5-HT2B receptor), then after 8 min, serotonin was added to the same wells at a final concentration of 10^−8 M (“second addition” to see potential antagonistic effect) and the maximal calcium response was determined using a FLIPR® Tetra instrument (Molecular Devices) in each of the two steps. The relative efficacy of the compounds was calculated as a percentage of the maximal effect induced by serotonin alone (defined as 100%). To determine EC50/IC50 values, concentration-response curves were fitted using a four-parameter logistic equation (IDBS Biobookml). Kb values were calculated from IC50 values, according to Cheng & Prusoff

[1] = Metabolic stability in human liver microsomes, unbound intrinsic clearance; type: in vitro ADME; conditions: liver microsomes, pH 7.4; unbound intrinsic clearance (human); Clint unbound = Cl int/fu mic; read-out: Cl int, mic unb. (h)
Experimental: Samples of the tested compounds (0.5 μM) were preincubated together with human liver microsomes (0.25 mg of microsomal protein/mL) in 0.05 M potassium phosphate buffer of pH 7.4 in microtiter plates at 37° C. for 5 minutes. The reaction was started by adding NADPH (1.0 mM). After 0, 5, 10, 15, 20 and 30 minutes, an aliquot was removed, the reaction was cooled and stopped by adding twice the amount of quench solution consisting of acetonitrile/methanol 1:1, and containing 0.2 μM carbutamide as internal standard. The samples were frozen until analyzed. The remaining concentration of undegraded test substance was determined by liquid chromatography-tandem mass spectrometry (LC-MS/MS). The half-life (t1/2) was determined from the gradient of the ratio of the signal of (test substance/internal standard)/unit time plot, allowing the calculation of the half-life of the test substance, assuming first order kinetics, from the decrease in the concentration of the compound with time. The microsomal clearance (mClint) was calculated as follows: mClint=((ln(2)/t ½)/Microsomal Protein Concentration (mg/ml))*1000, leading to the unit of uL/min/mg. The scaled clearance (mClin_scaled) was calculated as mCLint_scaled=m CLint*(Microsomal Yield (mg/kg BW))/1000000*60, leading to the units L/h/kg. The Microsomal Yield is defined by the specifics of the used microsomes. Calculations were modified from references: Di, The Society for Biomolecular Screening, 2003, 453-462; Obach, D M D, 1999 vol 27. N 11, 1350-1359.
Calculation of Unbound Intrinsic Clearance
C1int unbound=C1 int/fu mic

Row | SMILES | EC50 (5-HT2C receptor) [nM] | Emax (5-HT2C receptor) [%] | Selectivity over 5-HT2A (human 5-HT2A receptor) | Selectivity over 5-HT2B (human 5-HT2B receptor) | CLint scaled at 0.5 μM [1] [mL/min/kg]
1 | COC[C@@H]1C[C@@H]2CNCCN2c2cc(C(F)(F)F)cc(Cl)c2O1 [Example 45, (4aR,6S)-8-Chloro-6-(methoxymethyl)-10-(trifluoromethyl)-2,3,4,4a,5,6-hexahydro-1H-pyrazino[2,1-d][1,5]benzoxazepine] | 20 to 200 | > 70 | +++ (>100) | +++ (>100) | 83.3 to 833
2 | COC[C@@H]1C[C@@H]2CNCCN2c2cc(Cl)ccc2O1.Cl [Example 10, (4aR,6S)-10-Chloro-6-(methoxymethyl)-2,3,4,4a,5,6-hexahydro-1H-pyrazino[2,1-d][1,5]benzoxazepine hydrochloride] | 20 to 200 |  | ++ (from >30 to 100) | ++ (from >30 to 100) | 83.3 to 833
3 | C#Cc1cc(F)cc2c1O[C@H](COC)C[C@@H]1CNCCN21.Cl [Example 34, (4aR,6S)-8-Ethynyl-10-fluoro-6-(methoxymethyl)-2,3,4,4a,5,6-hexahydro-1H-pyrazino[2,1-d][1,5]benzoxazepine hydrochloride] | < 20 | > 70 | +++ (>100) | + (from 10 to 30) | < 83.3
4 | COC[C@@H]1C[C@@H]2CNCCN2c2cc(F)cc(C(F)F)c2O1.Cl [Example 9, (4aR,6S)-8-(Difluoromethyl)-10-fluoro-6-(methoxymethyl)-2,3,4,4a,5,6-hexahydro-1H-pyrazino[2,1-d][1,5]benzoxazepine hydrochloride] | < 20 | > 70 | +++ (>100) | +++ (>100) | < 83.3
5 | COC[C@@H]1C[C@@H]2CNCCN2c2cc(F)cc(Cl)c2O1.Cl [Example 7, (4aR,6S)-8-Chloro-10-fluoro-6-(methoxymethyl)-2,3,4,4a,5,6-hexahydro-1H-pyrazino[2,1-d][1,5]benzoxazepine hydrochloride] | < 20 | > 70 | +++ (>100) | +++ (>100) | < 83.3
6 | COC[C@@H]1C[C@@H]2CNCCN2c2cc(F)cc(F)c2O1.Cl [Example 11, (4aR,6S)-8,10-Difluoro-6-(methoxymethyl)-2,3,4,4a,5,6-hexahydro-1H-pyrazino[2,1-d][1,5]benzoxazepine hydrochloride] | 20 to 200 | > 70 | +++ (>100) | ++ (from >30 to 100) | < 83.3
7 | COC[C@@H]1C[C@@H]2CNCCN2c2cccc(C(F)F)c2O1.Cl [Example 6, (4aR,6S)-8-(Difluoromethyl)-6-(methoxymethyl)-2,3,4,4a,5,6-hexahydro-1H-pyrazino[2,1-d][1,5]benzoxazepine hydrochloride] | < 20 | > 70 | +++ (>100) | ++ (from >30 to 100) | < 83.3
8 | COC[C@@H]1C[C@@H]2CNCCN2c2cc(F)cc(C(F)(F)F)c2O1.Cl [Example 22, (4aR,6S)-10-Fluoro-6-(methoxymethyl)-8-(trifluoromethyl)-2,3,4,4a,5,6-hexahydro-1H-pyrazino[2,1-d][1,5]benzoxazepine hydrochloride] | < 20 | > 70 | +++ (>100) | ++ (from >30 to 100) | < 83.3
9 | C#Cc1cc(F)c2c(c1)N1CCNC[C@H]1C[C@@H](COC)O2.O=C(O)C(O)C(O)C(=O)O [Example 36, (4aR,6S)-10-Ethynyl-8-fluoro-6-(methoxymethyl)-2,3,4,4a,5,6-hexahydro-1H-pyrazino[2,1-d][1,5]benzoxazepine; (2R,3R)-2,3-dihydroxybutanedioic acid] | 200 to 1000 | 50 to 70 | + (from 10 to 30) | + (from 10 to 30) | 83.3 to 833
10 | COC[C@@H]1C[C@@H]2CNCCN2c2c(F)c(F)c(OC)c(Cl)c2O1.Cl [Example 53, (4aR,6S)-8-Chloro-10,11-difluoro-9-methoxy-6-(methoxymethyl)-2,3,4,4a,5,6-hexahydro-1H-pyrazino[2,1-d][1,5]benzoxazepine hydrochloride] | 20 to 200 | 50 to 70 | +++ (>100) | +++ (>100) | 83.3 to 833
11 | COC[C@@H]1C[C@@H]2CNCCN2c2c(F)c(F)cc(C(F)F)c2O1.Cl [Example 26, (4aR,6S)-8-(Difluoromethyl)-10,11-difluoro-6-(methoxymethyl)-2,3,4,4a,5,6-hexahydro-1H-pyrazino[2,1-d][1,5]benzoxazepine hydrochloride] | < 20 | > 70 | +++ (>100) | +++ (>100) | < 83.3
12 | COC[C@@H]1C[C@@H]2CNCCN2c2cc(Cl)c(F)cc2O1.Cl [Example 31, (4aR,6S)-10-Chloro-9-fluoro-6-(methoxymethyl)-2,3,4,4a,5,6-hexahydro-1H-pyrazino[2,1-d][1,5]benzoxazepine hydrochloride] | 20 to 200 | 30 to 50 | ++ (from >30 to 100) | ++ (from >30 to 100) | < 83.3
